{
  "source": "paper PMC12990037",
  "about": "“Discovery of Two Structurally Distinct Classes of Inhibitors Targeting the Nuclease MUS81 and Enhancing Efficacy of Chemotherapy in Cancer Cells” (Journal of Medicinal Chemistry, 2026)",
  "key": {"U2OS DR-GFP cells": {"test_system": "U2OS DR-GFP cells", "test": "I-SceI-based HR repair reporter assay", "assay_type": "cell-based", "details": "Homo sapiens, 72 h", "protocol": "3 MUS81 inhibitors suppress HR and BIR. (A) I-SceI-based BIR repair efficiency was measured in U2OS BIR-GFP cells treated with DMSO, two different siRNAs targeting MUS81, or the indicated concentrations of MU262 and MU876, and their control analogues for 72 h. The percentage of repair was normalized to the DMSO-treated control (D). n = 3. Error bars represent standard deviation (s.d.); ****p <0.0001 (unpaired, two-tailed t-test). […] (C,D) I-SceI-based HR (C) and NHEJ (D) repair efficiency was measured using U2OS DR-GFP and EJ5-GFP cells, respectively, following treatment with DMSO, MU262,MU876, or their control analogues for 72 h. The percentage of repair was normalized to the DMSO-treated control. n = 3. Error bars represent s.d.; *p <0.05, **p <0.01, ****p <0.0001 (unpaired, two-tailed t-test).\nReporter DR-GFP and […] U2OS cells along with BIR-GFP cells were transfected with 2.5 μg of I-SceI-expressing pCAGGS vector and subsequently treated with MUS81 inhibitors at the indicated concentrations. After transfection (72 h), cells were trypsinized and resuspended in 3% BSA in PBS. GFP fluorescence detection was carried out using a BD FACSVerse flow cytometer, and the data were analyzed with FlowJo software (BD Life Sciences). Data presented in the graph were normalized to the DMSO-treated sample."}, "U2OS cells [1]": {"test_system": "U2OS cells", "test": "EdU/PI cell cycle assay", "assay_type": "cell-based", "details": "72 h; for cell cycle progression: 0.5 μM; for cell cycle profile: 1 μM", "protocol": "Given these promising findings, we further investigated the specificity of MU262 and MU876 and potential short-term cytotoxicity. To mirror the treatment duration used in BIR and HR assays, U2OS cells were exposed to the inhibitors or siRNA for 3 days.\nU2OS WT cells (300,000) were seeded in a 6-well plate; a subset of them was treated with either control siRNA or siRNA targeting MUS81. After adhesion, cells were treated with the respective inhibitors for 72 h during which CPT ([…], Sigma-Aldrich) was added for the last 16 h and 10 μM EdU (Sigma-Aldrich) was added for the last 1 h. Cells were then harvested and stained by using the Click-iT EdU Alexa Fluor 647 Flow Cytometry Assay Kit (Thermo Fisher Scientific). Finally, cells were resuspended in 1xPBS containing 5 μg/mL of propidium iodide (PI) and analyzed using a BD FACSVerse flow cytometer (Becton Dickinson) and FlowJo software (BD Life Sciences). At least 20,000 cells were used for each measurement, and experiments were performed in duplicates."}, "U2OS cells [2]": {"test_system": "U2OS cells", "test": "γH2AX foci immunofluorescence, 72 h treatment", "assay_type": "cell-based", "protocol": "6 MUS81 inhibition induces persistent DNA damage leading to reduced cell survival. (A) U2OS cells were treated with DMSO, cisplatin as a positive control, control or MUS81-targeting siRNA, MU262, MU876, and their negative control counterparts at the indicated concentrations for 72 h. Representative images show staining of a DNA damage marker γH2AX in green with counterstaining of DAPI in blue. The concentration of all inhibitors shown in (A) is 2.5 μM. (B) DNA damage was assessed by quantifying γH2AX foci per nucleus from (A) using CellProfiller software. The graph represents percentage (%) of cells with ≥20 γH2AX foci per nucleus across different concentrations of inhibitors. n = 3; error bars represent s.d. (C) Indicated number of U2OS cells was transfected with a nontargeting siRNA (siCon) or MUS81-targeting siRNA (siMUS81) seeded for a CFA. […] (D) Quantification of (C), error bars represent s.d.; ****p <0.0001 (unpaired, two-tailed t-test). […] (F) Quantification of (E) using a nonlinear regression fitting model. n = 3. […] (H) Quantification of (G) using a nonlinear regression fitting model. n = 3.\nU2OS, CAL51 WT, and CAL51 MUS81^–/– cells (10,000) were seeded in a 96-well plate 24 h before the treatment. […] The γH2AX foci were detected and quantified using CellProfiler (Broad Institute of MIT and Harvard). The analyzed data were plotted in RStudio software using R programming language."}, "Microsomal stability": {"test": "Microsomal stability", "assay_type": "in vitro ADME"}},
  "data": [
    {"smiles": "CCc1nn2c(O)c(-c3nc4ccccc4[nH]3)nnc2c1-c1ccc(F)cc1", "note": "[Compound 18, 3-(1H-Benzo[d]imidazole-2-yl)-7-ethyl-8-(4-fluorophenyl)pyrazolo[5,1-c][1,2,4]triazin-4-ol]", "values": [
      {"measurement": "IC50", "setting": "U2OS DR-GFP cells", "value": "500 to 1000", "unit": "nM"},
      {"measurement": "cell cycle progression", "setting": "U2OS cells [1]", "value": "neither MU262 and MU876 affected the cell cycle progression"},
      {"measurement": "cell cycle profile", "setting": "U2OS cells [1]", "value": "mild increase in the S phase"},
      {"measurement": "γH2AX (DNA damage) foci", "setting": "U2OS cells [2]", "value": "significantly increased the number of DNA damage foci in a concentration-dependent manner"},
      {"measurement": "microsomal stability", "setting": "Microsomal stability", "value": "good microsomal stability"}
    ]},
    {"smiles": "Cc1cc(=O)[nH]c(-n2nc(-c3ccccc3)cc2NC(=O)c2cc(-c3ccccc3)on2)n1", "note": "[Compound 32, N-(1-(4-Methyl-6-oxo-1,6-dihydropyrimidin-2-yl)-3-phenyl-1H-pyrazol-5-yl)-5-phenylisoxazole-3-carboxamide]", "values": [
      {"measurement": "IC50", "setting": "U2OS DR-GFP cells", "value": "500 to 1000", "unit": "nM"},
      {"measurement": "cell cycle progression", "setting": "U2OS cells [1]", "value": "neither MU262 and MU876 affected the cell cycle progression"},
      {"measurement": "cell cycle profile", "setting": "U2OS cells [1]", "value": "mild increase in the S phase"},
      {"measurement": "γH2AX (DNA damage) foci", "setting": "U2OS cells [2]", "value": "significantly increased the number of DNA damage foci in a concentration-dependent manner"},
      {"measurement": "microsomal stability", "setting": "Microsomal stability", "value": "good microsomal stability"}
    ]}
  ]
}
